Data on two compounds can be found in publication PMC12808100, “The non-catalytic DNA polymerase ε subunit is an NPF motif recognition protein” (Nature Communications, 2025).

The pKd is −log10 of the Kd, conventionally taken in molar units. A lower pKd goes with a large Kd.

One test has as its target T1, UBE2N (Homo sapiens, UniProt P61088).
T1 sequence (P61088 1-152): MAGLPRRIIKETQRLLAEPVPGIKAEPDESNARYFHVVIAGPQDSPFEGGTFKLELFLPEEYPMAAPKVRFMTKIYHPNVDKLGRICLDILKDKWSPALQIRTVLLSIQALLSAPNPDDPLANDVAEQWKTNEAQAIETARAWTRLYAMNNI
Briefly: nHU-MS peptide bait, prey UBE2N.

The next test deals with TMA7 (Homo sapiens, UniProt Q9Y2S6). Briefly: nHU-MS peptide bait, prey TMA7.
The next test deals with T2, GYPC (Homo sapiens, UniProt P04921).
T2 sequence (P04921 1-128): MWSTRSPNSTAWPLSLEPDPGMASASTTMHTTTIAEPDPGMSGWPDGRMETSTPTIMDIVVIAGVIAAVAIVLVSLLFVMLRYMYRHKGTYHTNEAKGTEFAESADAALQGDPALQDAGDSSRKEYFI
Briefly: nHU-MS peptide bait, prey GYPC.

Another test addresses GNB4 (Homo sapiens, UniProt Q9HAV0). Nature of the test: nHU-MS peptide bait, prey GNB4.
Another test concerns the target T3, EHD4 (Homo sapiens, UniProt Q9H223).
T3 sequence (Q9H223 1-541): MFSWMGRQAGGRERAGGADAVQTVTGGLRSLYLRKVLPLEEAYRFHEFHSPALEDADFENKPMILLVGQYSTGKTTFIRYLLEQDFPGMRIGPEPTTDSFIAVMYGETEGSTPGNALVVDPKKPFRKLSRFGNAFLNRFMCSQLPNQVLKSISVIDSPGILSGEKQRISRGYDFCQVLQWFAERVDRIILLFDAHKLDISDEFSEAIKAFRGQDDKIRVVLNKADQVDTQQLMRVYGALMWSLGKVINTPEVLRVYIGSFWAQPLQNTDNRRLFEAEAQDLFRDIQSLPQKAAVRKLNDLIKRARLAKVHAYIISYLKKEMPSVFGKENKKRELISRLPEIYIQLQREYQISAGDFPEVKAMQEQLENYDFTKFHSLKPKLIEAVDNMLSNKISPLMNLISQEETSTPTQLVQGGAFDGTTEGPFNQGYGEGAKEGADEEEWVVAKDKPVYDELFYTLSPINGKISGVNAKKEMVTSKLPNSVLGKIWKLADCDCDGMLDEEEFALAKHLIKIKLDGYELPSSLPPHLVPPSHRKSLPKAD
Briefly: nHU-MS peptide bait, prey EHD4.

For the next test, the target named is T4, TXNL4B (Homo sapiens, UniProt Q9NX01).
T4 sequence (Q9NX01 1-149): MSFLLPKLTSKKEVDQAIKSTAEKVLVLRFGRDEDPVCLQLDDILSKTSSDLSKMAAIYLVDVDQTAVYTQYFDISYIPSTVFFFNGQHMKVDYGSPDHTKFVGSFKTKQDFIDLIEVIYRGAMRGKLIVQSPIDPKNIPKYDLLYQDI
Briefly: nHU-MS peptide bait, prey TXNL4B.

The next test concerns the target T5, TXNRD3 (Homo sapiens, UniProt Q86VQ6).
T5 sequence (Q86VQ6 1-643): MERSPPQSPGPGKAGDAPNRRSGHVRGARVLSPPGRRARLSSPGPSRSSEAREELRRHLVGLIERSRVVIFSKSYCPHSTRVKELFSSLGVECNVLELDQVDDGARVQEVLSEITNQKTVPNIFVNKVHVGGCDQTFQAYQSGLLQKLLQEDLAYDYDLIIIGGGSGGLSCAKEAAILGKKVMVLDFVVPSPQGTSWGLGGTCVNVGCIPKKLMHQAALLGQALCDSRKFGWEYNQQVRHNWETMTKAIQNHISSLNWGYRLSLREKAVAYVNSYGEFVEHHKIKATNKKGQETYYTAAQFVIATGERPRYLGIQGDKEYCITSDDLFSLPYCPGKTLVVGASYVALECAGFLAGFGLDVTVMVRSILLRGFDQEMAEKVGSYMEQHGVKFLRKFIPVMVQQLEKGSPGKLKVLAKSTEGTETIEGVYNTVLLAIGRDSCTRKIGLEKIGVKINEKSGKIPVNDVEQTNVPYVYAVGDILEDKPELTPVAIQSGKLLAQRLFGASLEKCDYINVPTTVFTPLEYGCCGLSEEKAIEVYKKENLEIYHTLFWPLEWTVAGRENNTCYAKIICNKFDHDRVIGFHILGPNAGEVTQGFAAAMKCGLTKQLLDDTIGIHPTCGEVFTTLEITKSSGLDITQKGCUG
Nature of the test: nHU-MS peptide bait, prey TXNRD3.

A further test has as its target T6, ASXL2 (Homo sapiens, UniProt Q76L83).
T6 sequence (Q76L83 1-1435): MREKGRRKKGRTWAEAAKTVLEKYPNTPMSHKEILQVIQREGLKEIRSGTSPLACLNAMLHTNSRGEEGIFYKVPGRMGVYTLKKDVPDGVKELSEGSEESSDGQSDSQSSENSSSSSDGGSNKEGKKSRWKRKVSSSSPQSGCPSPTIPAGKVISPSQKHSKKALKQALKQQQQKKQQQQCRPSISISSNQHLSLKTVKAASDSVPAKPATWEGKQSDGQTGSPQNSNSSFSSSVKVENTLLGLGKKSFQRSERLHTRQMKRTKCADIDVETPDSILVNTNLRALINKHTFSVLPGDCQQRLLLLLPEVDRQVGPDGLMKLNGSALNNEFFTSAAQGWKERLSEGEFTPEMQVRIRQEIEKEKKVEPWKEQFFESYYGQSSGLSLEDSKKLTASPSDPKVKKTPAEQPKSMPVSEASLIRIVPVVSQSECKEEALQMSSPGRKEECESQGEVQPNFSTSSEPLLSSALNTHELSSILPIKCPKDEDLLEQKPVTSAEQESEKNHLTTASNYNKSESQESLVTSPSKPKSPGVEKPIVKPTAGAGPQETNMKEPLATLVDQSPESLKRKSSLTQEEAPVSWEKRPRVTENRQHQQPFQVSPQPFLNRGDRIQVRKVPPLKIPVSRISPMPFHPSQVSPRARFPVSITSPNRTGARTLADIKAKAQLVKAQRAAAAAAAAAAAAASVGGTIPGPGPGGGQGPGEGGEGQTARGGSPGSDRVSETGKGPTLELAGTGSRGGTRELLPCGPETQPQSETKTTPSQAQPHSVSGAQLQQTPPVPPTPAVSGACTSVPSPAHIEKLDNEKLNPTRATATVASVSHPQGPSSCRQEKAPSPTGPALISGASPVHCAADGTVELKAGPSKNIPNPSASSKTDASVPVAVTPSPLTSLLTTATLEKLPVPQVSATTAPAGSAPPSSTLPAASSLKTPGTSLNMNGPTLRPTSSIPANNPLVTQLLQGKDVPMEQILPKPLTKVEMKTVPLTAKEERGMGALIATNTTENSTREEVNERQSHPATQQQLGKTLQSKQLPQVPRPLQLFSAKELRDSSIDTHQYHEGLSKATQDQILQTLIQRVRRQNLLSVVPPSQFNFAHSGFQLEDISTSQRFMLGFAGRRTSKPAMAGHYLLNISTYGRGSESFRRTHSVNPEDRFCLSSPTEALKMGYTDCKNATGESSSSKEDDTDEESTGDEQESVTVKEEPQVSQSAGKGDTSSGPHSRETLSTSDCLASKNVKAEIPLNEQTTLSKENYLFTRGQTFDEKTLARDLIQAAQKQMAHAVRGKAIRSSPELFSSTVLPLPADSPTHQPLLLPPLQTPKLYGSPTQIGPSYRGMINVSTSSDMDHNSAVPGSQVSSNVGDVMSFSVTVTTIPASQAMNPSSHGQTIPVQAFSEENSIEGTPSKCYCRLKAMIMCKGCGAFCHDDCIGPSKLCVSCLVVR
Nature of the test: nHU-MS peptide bait, prey ASXL2.

pKd: −log10 of the molar value. Residues, ends and D or L forms follow the SMILES beside them.

Chain of GNB4 (Q9HAV0 2-340 limits assumed): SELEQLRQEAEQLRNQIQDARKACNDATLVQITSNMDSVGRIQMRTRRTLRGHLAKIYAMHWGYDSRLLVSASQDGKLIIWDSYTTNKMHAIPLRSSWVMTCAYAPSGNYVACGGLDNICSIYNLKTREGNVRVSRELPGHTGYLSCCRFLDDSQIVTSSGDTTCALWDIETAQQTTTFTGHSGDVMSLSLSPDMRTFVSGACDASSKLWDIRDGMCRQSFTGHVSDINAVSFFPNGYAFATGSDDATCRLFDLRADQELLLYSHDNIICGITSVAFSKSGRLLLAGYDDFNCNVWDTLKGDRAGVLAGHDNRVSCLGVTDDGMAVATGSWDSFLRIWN
Chain of GNB4 (P59768 2-68 partner limits assumed): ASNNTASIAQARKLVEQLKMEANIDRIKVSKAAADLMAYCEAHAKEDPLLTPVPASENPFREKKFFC
Chain of TMA7 (Q9Y2S6 whole entry): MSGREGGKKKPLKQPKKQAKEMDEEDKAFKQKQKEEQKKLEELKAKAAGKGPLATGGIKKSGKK

As for `CC(C)[C@H](NC(=O)[C@H](CCCCN)NC(=O)[C@H](Cc1ccccc1)NC(=O)[C@@H]1CCCN1C(=O)[C@H](CC(N)=O)NC(=O)[C@@H](NC(=O)[C@H](CCCNC(=N)N)NC(=O)CNC(=O)[C@H](CCC(N)=O)NC(=O)[C@H](CO)NC(=O)[C@@H](N)CO)C(C)C)C(=O)N[C@@H](CO)C(=O)N[C@@H](C)C(=O)N[C@@H](CO)C(=O)N[C@@H](CO)C(=O)N[C@@H](CCCCN)C(=O)N[C@@H](CCC(=O)O)C(=O)N1CCC[C@H]1C(=O)N[C@@H](C)C(N)=O` [WDHD1 906-924] (H-SSQGRVNPFKVSASSKEPA-NH2), the pKd was 4.68 on UBE2N; 4.87 on TMA7; 4.73 on GYPC; 4.90 on GNB4; 4.72 on EHD4. Besides, the BI on UBE2N (prey UBE2N, MS4_Varjosalo) was found to be 0.3252; on TMA7 (prey TMA7, MS7_Varjosalo), 0.4275; at GYPC (prey GYPC, MS4_Varjosalo), 0.35; on GNB4 (prey GNB4, MS7_Varjosalo), 0.4407; at EHD4 (prey EHD4, MS4_Varjosalo) it was 0.3455.
With `CC[C@H](C)[C@H](NC(=O)[C@H](CC(N)=O)NC(=O)[C@@H](NC(=O)[C@H](CCC(N)=O)NC(=O)[C@@H]1CCCN1C(=O)[C@@H](NC(=O)[C@H](CCC(N)=O)NC(=O)[C@H](CCCNC(=N)N)NC(=O)CCCCCNC(=O)CCCC[C@@H]1SC[C@@H]2NC(=O)N[C@@H]21)[C@@H](C)O)C(C)C)C(=O)N[C@@H](CC(N)=O)C(=O)N1CCC[C@H]1C(=O)N[C@@H](Cc1ccccc1)C(=O)N[C@H](C(=O)N1CCC[C@H]1C(=O)N[C@@H](CC(=O)O)C(=O)N[C@@H](CO)C(=O)N[C@@H](CC(C)C)C(=O)N[C@@H](CC(C)C)C(=O)N[C@@H](CC(C)C)C(=O)N[C@@H](Cc1c[nH]cn1)C(=O)N[C@@H](CO)C(N)=O)[C@@H](C)O` [WEE1] (HELM PEPTIDE1{[O=C1N[C@H]2[C@H](CS[C@H]2CCCCC(=O)[*:2])N1].[O=C(CCCCCN[*:1])[*:2]].R.Q.T.P.Q.V.N.I.N.P.F.T.P.D.S.L.L.L.H.S.[am]}$$$$V2.0), the pKd on TXNL4B is 5.13; on TXNRD3, 5.16; at ASXL2 it was 5.26. Also, the BI came out at 0.575 at TXNL4B (prey TXNL4B, MS7_Varjosalo); 0.5933 on TXNRD3 (prey TXNRD3, MS7_Varjosalo); 0.643 at ASXL2 (prey ASXL2, MS7_Varjosalo). In addition, the log2FC on TXNL4B (prey TXNL4B, MS7_Varjosalo) is recorded as -1.234; at TXNRD3 (prey TXNRD3, MS7_Varjosalo) it was -1.298; at ASXL2 (prey ASXL2, MS7_Varjosalo) it was -1.486.
